± gives the standard deviation of the averaged measurements.
Key:
Details in all cases: 72 h
Calu-3 [1] = experiment: drug sensitivity score (DSS) for viability; higher = more toxic; extreme values may be limits of the assay
Vero E6 [2] = experiment: as above
U2OS [3] = experiment: as above
Caco-2 [4] = experiment: as above
HepG2 [5] = experiment: as above
Calu-3 [6] = experiment: cell viability relative to DMSO; higher = less toxic
Vero E6 [7] = experiment: as above
U2OS [8] = experiment: as above
Caco-2 [9] = experiment: as above
HepG2 [10] = experiment: as above
Calu-3 [11] = experiment: relative viability EC50 (midpoint between 100% and the lowest measured viability); higher = less toxic
Vero E6 [12] = experiment: as above
U2OS [13] = experiment: as above
Caco-2 [14] = experiment: as above
HepG2 [15] = experiment: as above

Row | SMILES | drug sensitivity score (Calu-3 [1]) | drug sensitivity score (Vero E6 [2]) | drug sensitivity score (U2OS [3]) | drug sensitivity score (Caco-2 [4]) | drug sensitivity score (HepG2 [5]) | cell viability (Calu-3 [6]; 1 nM) [%] | cell viability (Calu-3 [6]; 10 nM) [%] | cell viability (Calu-3 [6]; 100 nM) [%] | cell viability (Calu-3 [6]; 1000 nM) [%] | cell viability (Calu-3 [6]; 10000 nM) [%] | cell viability (Vero E6 [7]; 1 nM) [%] | cell viability (Vero E6 [7]; 10 nM) [%] | cell viability (Vero E6 [7]; 100 nM) [%] | cell viability (Vero E6 [7]; 1000 nM) [%] | cell viability (Vero E6 [7]; 10000 nM) [%] | cell viability (U2OS [8]; 1 nM) [%] | cell viability (U2OS [8]; 10 nM) [%] | cell viability (U2OS [8]; 100 nM) [%] | cell viability (U2OS [8]; 1000 nM) [%] | cell viability (U2OS [8]; 10000 nM) [%] | cell viability (Caco-2 [9]; 1 nM) [%] | cell viability (Caco-2 [9]; 10 nM) [%] | cell viability (Caco-2 [9]; 100 nM) [%] | cell viability (Caco-2 [9]; 1000 nM) [%] | cell viability (Caco-2 [9]; 10000 nM) [%] | cell viability (HepG2 [10]; 1 nM) [%] | cell viability (HepG2 [10]; 10 nM) [%] | cell viability (HepG2 [10]; 100 nM) [%] | cell viability (HepG2 [10]; 1000 nM) [%] | cell viability (HepG2 [10]; 10000 nM) [%] | relative viability EC50 (Calu-3 [11]) [µM] | relative viability EC50 (Vero E6 [12]) [µM] | relative viability EC50 (U2OS [13]) [µM] | relative viability EC50 (Caco-2 [14]) [µM] | relative viability EC50 (HepG2 [15]) [µM]
1 | CC(C)C[C@H](NC(=O)N1CCCCCC1)C(=O)N[C@H](Cc1cn(C)c2ccccc12)C(=O)N[C@H](Cc1ccccn1)C(=O)O | 0 | 0 | 0 | 0 | 0 | 109 | 95.2 | 97.9 | 106 | 112 | 95 | 97 | 100 | 98.9 | 98.5 | 99.1 | 94.4 | 96.4 | 99 | 97.9 | 100 | 82.5 | 92.1 | 99.9 | 91.2 | 94.5 | 111 | 99 | 101 | 89.8 | > 10 | > 10 | > 10 | > 10 | > 10
2 | CCCCCCCCC(=O)N[C@H](CN1CCCC1)[C@H](O)c1ccc2c(c1)OCCO2 | 0 | 0 | 0 | 0 | 0 | 109 | 94.9 | 92.2 | 92 | 94.8 | 91.9 | 97.2 | 87.7 | 90.4 | 95.4 | 101 | 102 | 105 | 98.5 | 102 | 101 | 94.9 | 102 | 111 | 98.9 | 96.8 | 105 | 105 | 106 | 104 | > 10 | > 10 | > 10 | > 10 | > 10
3 | CCCCN1CCC(CCC(=O)c2cc(Cl)c(N)cc2OC)CC1 | 0 | 0 | 0 | 0 | 2.4 | 101 | 99.5 | 101 | 98.3 | 109 | 101 | 102 | 99.2 | 101 | 94.1 | 104 | 93.6 | 95.8 | 92.7 | 94.1 | 104 | 100 | 97.3 | 92.7 | 95.2 | 95.5 | 98.2 | 96.9 | 82.8 | 83.5 | > 10 | > 10 | > 10 | > 10 | > 10
4 | CCCCOCCOc1nc(-c2ccc(C(=O)O)c(F)c2)sc1C | 1 | 0 | 0.1 | 0.4 | 0 | 109 | 104 | 109 | 89.8 | 84.8 | 100 | 99.7 | 97.5 | 99.9 | 90.8 | 103 | 102 | 96.5 | 89.6 | 90.1 | 94.1 | 97.2 | 94.6 | 100 | 82 | 97.5 | 104 | 105 | 102 | 102 | > 10 | > 10 | > 10 | > 10 | > 10
5 | CCOc1c2c(c(OCC)c3ccccc13)C(=O)N(c1ccc(CC(=O)NS(=O)(=O)c3ccccc3)cc1)C2 | 0 | 0 | 0 | 0 | 0 | 94 | 98.6 | 102 | 98.1 | 98.2 | 96 | 95.1 | 97.9 | 89.1 | 101 | 99.4 | 100 | 96.4 | 98.9 | 97.2 | 96.3 | 94.8 | 97.7 | 90.3 | 89.8 | 97.6 | 87 | 104 | 93.1 | 104 | > 10 | > 10 | > 10 | > 10 | > 10
6 | CC[C@@H](c1ccc(F)c(F)c1)n1c(C(=O)OC)c(-c2ccno2)[nH]c1=S | 0 | 0 | 0 | 0 | 0 | 96.1 | 95.1 | 98.6 | 91.3 | 99.8 | 103 | 95.4 | 97.8 | 99.9 | 96.7 | 99.7 | 94 | 98.9 | 96 | 95.7 | 97.9 | 98.3 | 98.4 | 96.9 | 94.2 | 115 | 98.8 | 93.3 | 99.7 | 90.4 | > 10 | > 10 | > 10 | > 10 | > 10
7 | CN(C)C(=O)[C@H](O)[C@H](Cc1ccccc1)NC(=O)c1cc2cc(Cl)ccc2[nH]1 | 0 | 0 | 0 | 0 | 0 | 96.2 | 104 | 97 | 102 | 102 | 108 | 94.6 | 102 | 98.3 | 106 | 95.4 | 102 | 90.5 | 95.3 | 97 | 87.2 | 97 | 96.2 | 106 | 96.8 | 103 | 96 | 106 | 105 | 106 | > 10 | > 10 | > 10 | > 10 | > 10
8 | CN1C(=O)N(c2cc(Cl)cc(Cl)c2)C(=O)[C@]12CN(c1ccc(C(=O)O)cn1)C[C@H]2c1ccc(C#N)cc1 | 0 | 0 | 0 | 0 | 0 | 104 | 90.8 | 93.7 | 111 | 107 | 99.4 | 102 | 101 | 93.7 | 103 | 98.8 | 96.5 | 100 | 101 | 94.4 | 93.9 | 98.4 | 97.5 | 89 | 97.3 | 104 | 93.1 | 91.5 | 96.9 | 106 | > 10 | > 10 | > 10 | > 10 | > 10
9 | CN1CCN(c2nc3ccccc3nc2Cl)CC1 | 0 | 0 | 0 | 0 | 0 | 93.4 | 105 | 106 | 92.4 | 98.3 | 101 | 102 | 103 | 94.2 | 97.5 | 95.9 | 97.6 | 99 | 103 | 96.3 | 89.4 | 90.5 | 98.3 | 88.4 | 91.6 | 97.2 | 92.9 | 104 | 93 | 95.9 | > 10 | > 10 | > 10 | > 10 | > 10
10 | Cc1c(Cc2ccc3ccccc3n2)c2cc(F)ccc2n1CC(=O)O | 0 | 0 | 0 | 0 | 0 | 95.8 | 108 | 96.8 | 110 | 111 | 102 | 96.7 | 99.5 | 97.8 | 101 | 94.7 | 101 | 95.4 | 97.9 | 108 | 94.6 | 99.4 | 98.7 | 98.4 | 109 | 119 | 96.9 | 109 | 108 | 105 | > 10 | > 10 | > 10 | > 10 | > 10
11 | NC(=O)CCCCn1ccc(/N=C(\N)NCC(F)(F)F)n1 | 0 | 0 | 0 | 0 | 0 | 110 | 96.5 | 107 | 99.4 | 102 | 106 | 103 | 104 | 102 | 99.7 | 98.8 | 104 | 104 | 99.9 | 99.5 | 98.8 | 97.8 | 104 | 92.6 | 97.6 | 103 | 97.7 | 98.1 | 105 | 105 | > 10 | > 10 | > 10 | > 10 | > 10
12 | Nc1c(S(=O)(=O)O)cc(Nc2cccc3ccccc23)c2c1C(=O)c1ccccc1C2=O | 0 | 0 | 0.8 | 0.1 | 1 | 101 | 95.8 | 91.5 | 101 | 93.2 | 94.2 | 98.3 | 97.3 | 93.7 | 86.7 | 94.1 | 98.4 | 95.3 | 95.4 | 81.8 | 91.3 | 97.8 | 101 | 89.7 | 90.1 | 103 | 91.1 | 91.1 | 90 | 86.8 | > 10 | > 10 | > 10 | > 10 | > 10
13 | O=C(Nc1ccccc1)Nc1ccc(-c2ccc(C(=O)[C@@H]3CCC[C@@H]3C(=O)O)cc2)cc1 | 0 | 0 | 0 | 0.4 ± 0.42 | 0.35 ± 0.49 | 111 ± 3 | 103.8 ± 0.85 | 97.2 ± 1.4 | 98.2 ± 5.6 | 108 ± 1.9 | 101 ± 3.9 | 98.7 ± 1.1 | 98.45 ± 0.35 | 94.3 ± 2.8 | 95.1 ± 0.57 | 98.5 ± 1.5 | 98.6 ± 5.8 | 100 ± 1.3 | 101 ± 2 | 94.2 ± 2.1 | 99.05 ± 0.78 | 95.8 ± 1.6 | 94.35 ± 0.35 | 97 ± 13 | 85.6 ± 0.28 | 105.2 ± 0.49 | 96.4 ± 1.4 | 95.5 ± 10 | 92.2 ± 7 | 97.1 ± 7.3 | > 10 | > 10 | > 10 | > 10 | > 10
14 | O=C(O)CCc1ccc(NCc2cccc3c2CCCN3CCOc2ccccc2)cc1F | 0 | 0 | 0 | 0 | 0 | 93.2 | 97.4 | 91.6 | 94.8 | 99.6 | 97.5 | 98.2 | 97.4 | 98.6 | 96 | 101 | 96.5 | 99 | 97.4 | 104 | 106 | 96.2 | 101 | 106 | 96.4 | 97.9 | 101 | 100 | 100 | 95 | > 10 | > 10 | > 10 | > 10 | > 10

— the supplement of paper PMC13380429
